Measurements: patent US20230020401A1, “METABOLIC REPROGRAMMING OF IMMUNE CELLS TO ENHANCE THE EFFICACY OF PROPHYLACTIC AND T[…]” (priority 2019, published 2023)

Columns and labels:
IgG1 memory cells [1] = experiment: Effect of Mdivi-1 on IgG1 memory cells formation 6 months post immunization; type: in vivo
SRBC specific antibody = experiment: SRBC immunization in older age mice with Mdivi-1; type: in vivo; conditions: 14-24 months old mice; 2.5 mg/kg day 3; day 11
Protocol: 2 groups of eight mice each (14-24 months old age) were immunized intraperitoneally with sheep red blood cells (SRBC). In day 3, one group (SRBC group) was administered with saline, and another group (SRBC+Mdivi-1 (SBP-AS08)) was administered with 2.5 mg/kg dose of Mdivi-1 (SBP AS-08). FIG. 30B and FIG. 30C show scatter plots of SRBC specific anti-IgM antibody or SRBC specific anti-IgG1 antibody of two groups in day 11 after administration of SRBC, respectively. Each dot represents each individual mice in each group.

[2] = tested on: immune cells (GC B cells, memory B cells, non-B cells); experiment: Mitochondrial mass of immune cells in vivo after SRBC immunization with SBP-AS08; design: species or system mice
Protocol: Seven mice each in two group were immunized with SRBC on Day 0 and Day 4. One group on Day 3 and Day 7 were given SBP-A508 at 2.5 mg/kg. GC B cells were MACS and stained with Tomm20 (red) to stain mitochondria and DAPI to stain nucleus on Day 15. Cells were imaged using confocal microscope.
In another experiment, mice each in two group were immunized with SRBC on Day 0 and Day 5. One group of mice was also injected with SBP-A508 on Day 7 and Day 10. […] Day 15 post immunization, mice were sacrificed and spleens were harvested. Cells were incubated in Mitotracker red dye 200 nM per ml of RPMI for 15 mins at culture conditions. Cells were further stained with surface antibodies B220, CD38, Fas to determine B cells, Germinal Center and non-B cells populations.

pseudo SARS-CoV2 virus = type: cell-based, human
[3] = tested on: mouse pancreatic cancer cells; experiment: Neo-antigen vaccine with SBP-AS08 in mouse pancreatic cancer model; type: in vivo, mice; conditions: Kaplan Meier
Protocol: The effect of Mdivi-1 (SBP-AS08) in boosting immunity can be extrapolated to other diseases related to specific immune response (e.g., cancer, etc.). FIG. 36A is a schematic of an experimental layout to test the effect of Mdivi-1 (SBP-AS08) in mouse cancer model. In this experiment, mouse pancreatic cancer cell line lysate was used as the vaccine. 200,000 mouse pancreatic cancer cells were injected in 10 (C57/B6) mice per group via tail vein. Effectiveness of the vaccine was tested by analyzing the metastasis of the cancer cells from the pancreas to lungs (FIG. 36B). Lungs tissues were collected from group of vaccine and vaccine with SBP-AS08 on Day 22 post injections. Two more groups with no treatment and only SBP-AS08 treatment were also included in the analysis.
FIG. 37A and FIG. 37B show Kaplan Meier survival curve of mice that are unvaccinated, treated with SBP-AS08 only, treated with vaccine, or treated with vaccine and SBP-AS08.

IgG1 GC B cells = experiment: SRBC immunization of mice with Mdivi-1 treatment (GC and memory B cells); type: in vivo
SARS-CoV2 specific cells = experiment: SARS-CoV2 S1 subunit vaccine with Mdivi-1 (SBP-AS08) in mice; type: in vivo
IgG1 memory B cells = experiment: SRBC immunization, Mdivi-1 once on Day 3, analysis on day 11 (IgG1 memory and memory precursor cells, antibodies); type: in vivo, mice
Protocol: Mice were immunized with Sheep red blood cells (SRBC) to mount an immune response. One group was treated with Mdivi-1 once at the dose of 2.5 mg/kg on Day 3. Blood samples of all groups were analyzed on day 11 after initial immunization.
FIGS. 21A-B show increased IgG1 memory cell population upon Mdivi-1 treatment. […] show flow plots showing IgG1 population and gating memory B cells in immunized control and Mdivi-1 treated mice.
FIG. 22A show two flow plots showing population of SRBC-specific IgG1 memory precursors in control and Mdivi-1 treated group (right upper boxes). FIG. 22B is the graph showing frequencies of IgG1 memory precursors.
Sera was incubated with SRBC to bind all the SRBC specific antibody, followed by staining SRBCs with anti-IgG1 to determine the SRBC specific IgG1 in control and Mdivi-1 treated group of mice.

NP specific B cells = experiment: NP-CGG immunization with Mdivi-1 (day 2, 5, 8) and rechallenge on day 61; type: in vivo, mice
Protocol: FIG. 12C is a schematic of an experimental design of multiple injections of Mdivi-1 (SBP-A508) for studying NP-CGG immunization along with or without SBP-A508 treatment. As shown, mice were injected with NP-CGG on day 0, and further injected with SBP-A508 on day 2, Day 5, and Day 8 at a dose of 2.5 mg/kg each. Then, a boost immunization (rechallenge) was given on day 61. Mice were bleed on day 82 for further analysis. FIG. 12D is a bar graph in log scale showing the NP-2 specific antibody production measured by ELISA in control and SBP-AS08 treated group upon rechallenge with NP-CGG in PBS on Day 61. Mice were bleed on Days 0, 60, 68, 75 and 82.
FIG. 13A depicts an experimental design for studying NP-CGG immunization along with or without Mdivi-1 treatment. Briefly, Mdivi-1 treatments were performed at least three times after immunization (day 2, day 5, and day 8), and the blood samples from the subject were analyzed at 2 months after the immunization. […] Mice were bleed on days 0, 60, 68, 75 and 82.
Mice were immunized with NP-CGG and treated with Mdivi-1 at least three times after immunization (day 2, day 5, and day 8). Then, a boost immunization (rechallenge) was given on day 61. Mice were bleed on day 82 for further analysis. […] Mice were bleed on days 0, 60, 68, 75 and 82 after immunization with NP-CGG. […] As shown in FIGS. 17A-B, Mdivi-1 treated mice replenished their memory B cell pool.

IgM and IgG1 cells = experiment: Confocal imaging of mitochondria organization upon BCR stimulation; type: cell-based; conditions: BCR+Mdivi-1
IgG1 memory cells [4] = experiment: SRBC immunization Day 0 with SBP-AS08 on day 2, IgG1 memory cells; type: in vivo, mice; conditions: SRBC with SBP-AS08 vs SRBC alone
Protocol: Seven mice were immunized with SRBC Day 0, and further injected with SBP-AS08 on day 2. Then, serum from immunized mice was incubated with SRBC and stained by anti-mouse IgG1 antibody to detect the SRBC specific IgG1 antibody. FIG. 12A is the graph showing absolute number of IgG1 memory cells in SRBC alone and SRBC with SBP-A508, indicating the increase of IgG1 memory cells in the mice injected with SBP-AS08.

[5] = tested on: T follicular helper (TFh) cells; experiment: T follicular helper (TFh) cells in Mdivi-1 treated mice; type: in vivo
Description: […] Dot plots shown in FIG. 18B show the frequencies of TFh cells. […] Similarly, FIGS. 23A-B show flow plots (FIG. 23A) and graph (FIG. 23B) displaying enrichment of T follicular helper cells in mice treated with Mdivi-1.

H1N1 = experiment: Flu vaccine with Mdivi-1, lethal H1N1 challenge; type: in vivo, mice
Protocol: 4 groups of ten mice each (6-8 weeks) were vaccinated intra-nasally with flu vaccine (vaccine group and vaccine+Mdivi-1 (SBP AS-08) group) or saline (No Vaccine group). In day 3, vaccine+Mdivi-1 (SBP AS-08) group and Mdivi-1 only group were administered with 2.5 mg/kg dose of Mdivi-1 (SBP AS-08), while all other groups were administered with saline. In day 60, all groups were administered with a lethal dose of H1N1. FIG. 28A is an individual dot graph showing the weight of mice in each group post lethal H1N1 viral infection. For each time point, dot or a group of dots from left to right represent the sample fo no vaccine, SBP-AS08 only, vaccine only, and vaccine and SBP-AS08, respectively. […] Mice were sacrificed if the weight reached 70% of their original weight or appeared very sick. N=10 per group, *p=0.04, ** p=0.001, ***p=0.0001, ****p<0.0001.
Mice from each group were also sacrificed on Day 7 post lethal influenza infection.

[6] = tested on: plasma cells (CD138+ cells); experiment: Plasma cell (PC) differentiation in vitro; type: cell-based
Protocol: Cells were treated either with Etomoxir to prevent fatty acid oxidation or with 2-deoxy-D-glucose (2DG) to […] to see the effect of fatty acid oxidation in plasma cell differentiation.

[7] = 2.5 mg/kg Day 3 and Day 7, mitotracker red MFI, Day 15
[8] = injected Day 7 and Day 10, spleen Day 15, Mitotracker red
[9] = Mdivi-1 two days post immunization
[10] = single injection 2.5mg/kg Day 3, Day 15

COc1cc(-n2c(=S)[nH]c3ccccc3c2=O)c(Cl)cc1Cl [Mdivi-1, 3-(2,4-dichloro-5-methoxyphenyl)-2,3-dihydro-2-thioxo-4(1H)-quinazolinone]
immune memory formation (IgG1 expressing memory B cells) (IgG1 memory cells [1]): facilitates immune memory formation | SRBC specific anti-IgG1 antibody (SRBC specific antibody): substantially increased | mitochondrial mass of germinal center B cells [2, 7]: enhances | mitochondrial mass of memory B cells [2, 7]: enhances | mitochondrial mass of B cells [2, 8]: significantly increased | mitochondrial mass of non-B cells [2, 8]: significantly increased | % of neutralizing antibody titers (SARs-Cov2 pseudovirus neutralization) (pseudo SARS-CoV2 virus): higher | survival of tumor bearing mice [3]: increases the survival | frequencies of GC B cells (IgG1 GC B cells; Mdivi-1 twice, each 3 days after SRBC, vs control): increased | IgG1 memory B cells (IgG1 GC B cells; [9]): significant increase | longevity of IgG1 memory B cells (IgG1 GC B cells; [9]): significant increase | mitochondrial mass of IgG1 memory B cells (IgG1 GC B cells; [9]): significant increase | mitochondrial mass of IgG1 GC B cells (IgG1 GC B cells; Mitotracker green MFI): enhances | IgG1 B cell loss through mitochondrial fragmentation and apoptosis (IgG1 GC B cells; SRBC immunization): prevents IgG1 B cell loss | survival of IgG1 GC B cells (IgG1 GC B cells; active caspase-3, flow cytometry): enhances | efficacy of the vaccine after rechallenge (S1 specific antibody titers in serum) (SARS-CoV2 specific cells; 2.5 mg/kg Day 2 and Day 5, boost day 30, Day 37 and Day 44): enhances the efficacy | number of marker-specific B cells (SARS-CoV2 specific cells; injections Day 2 and Day 5, Day 15, vs vaccine alone): further increased | number of SARS-CoV2-specific cells (SARS-CoV2 specific cells; [10]): increased | number of SARS-CoV2-specific memory B cells (SARS-CoV2 specific cells; [10]): increased | number of anti-SARS-CoV2 antibody producing cells (SARS-CoV2 specific cells; [10]): increased | number of splenocytes (SARS-CoV2 specific cells; [10]): increased | IgG1+CD38+ cell population (IgG1 memory B cells) (IgG1 memory B cells; 2.5 mg/kg once on Day 3, day 11): substantially increased | frequencies of SRBC-specific IgG1 memory precursors (IgG1 memory B cells; FIG. 19): significantly increased | IgG1+CD38+ cell population (memory precursors cells) (IgG1 memory B cells; FIGS. 22A-B): substantially increased | efficacy of immunization (total IgG and SRBC specific IgG antibodies) (IgG1 memory B cells; FIGS. 24A-B): increases the efficacy of immunization | frequency of NP specific B cells (NP specific B cells; 2 months after immunization, vs control): substantial increase | memory B cell pool (NP specific B cells; after rechallenge): replenished | number of NP specific IgG1 memory cells (NP specific B cells; after rechallenge, vs control): significantly increased | number of NP specific immune cells (NP specific B cells; after rechallenge, vs control): significantly increased | antigen specific antibody generation after antigen boost (NP specific B cells; rechallenge with NP-CGG in PBS on Day 61): substantially increased | mice showing secondary response upon recall (NP specific B cells; upon recall, control group 33%): 100% | NP specific antibody production measured by ELISA (NP specific B cells; vs control): increased | mitochondrial fission in BCR treated cells (IgM and IgG1 cells): prevents the mitochondrial fission | absolute number of IgG1 memory cells (IgG1 memory cells [4]): increase | frequency of TFh cells ([5]; FIG. 18B, vs control): substantially increased | T follicular helper cells ([5]; FIGS. 23A-B): enrichment | PD-1 molecule expression on T follicular helper cells (median fluorescent intensity) ([5]; vs nontreated control group): higher | protection against fatal influenza infection (event free survival) (H1N1; 2.5 mg/kg day 3 after flu vaccine, lethal H1N1 day 60): boosts the protection | disease progression post H1N1 (lung histology) (H1N1; Day 7 post lethal influenza infection, H&E): reduces the disease progression

O=CC[C@@H](O)[C@H](O)[C@H](O)CO [2DG, 2-deoxy-D-glucose]
number of CD138+ cells [6]: substantially decreased

CCOC(=O)[C@@]1(CCCCCCOc2ccc(Cl)cc2)CO1 [Etomoxir]
number of CD138+ cells [6]: substantially increased
